Experimental data: article PMC2464581, “Pichia stipitis xylose reductase helps detoxifying lignocellulosic hydrolysate by reducing 5-hydroxymethyl-furfural (HMF)” (Biotechnology for Biofuels, 2008)
One block for each molecule: values may come before it.

Columns and labels:
[1] = target: T1, Pichia stipitis xylose reductase (Ps-XR) (Scheffersomyces stipitis, UniProt P31867); test: NADPH oxidation at […] nm, non-linear regression, substrate-inhibition model with Hill coefficient; type: biochemical; conditions: NADPH as cofactor, Hill coefficient n = 3.51, 100 mM phosphate pH 7.0, 30 °C, unit of Ki not printed (Km in mM)
T1 construct: gene XYL1; XYL1 gene product overproduced in S. cerevisiae TMB3260 (PGK1p-XYL1); purified by Red-Sepharose and gel filtration; no tag mentioned
T1 sequence (P31867 1-318): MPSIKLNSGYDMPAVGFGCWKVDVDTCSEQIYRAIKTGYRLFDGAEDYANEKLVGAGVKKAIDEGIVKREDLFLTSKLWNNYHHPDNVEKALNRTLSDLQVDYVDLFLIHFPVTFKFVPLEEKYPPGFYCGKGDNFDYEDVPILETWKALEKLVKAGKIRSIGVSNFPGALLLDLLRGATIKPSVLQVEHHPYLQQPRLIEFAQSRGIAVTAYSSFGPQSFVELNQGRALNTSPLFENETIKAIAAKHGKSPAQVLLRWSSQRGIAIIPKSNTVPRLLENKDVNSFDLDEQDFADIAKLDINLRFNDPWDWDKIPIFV

purified protein = substrate: O=Cc1ccc(CO)o1; test: purified protein; type: biochemical, Scheffersomyces stipitis; conditions: NADPH as cofactor, substrate-inhibition model, 100 mM phosphate pH 7.0, 30 °C

Ki [1]: 95.0
Molecule: O=Cc1ccc(CO)o1 [HMF]

B1: Pichia stipitis xylose reductase (Ps-XR) (Scheffersomyces stipitis CBS 6054) (protein)
chain: T1 sequence (P31867 1-318)
notes: XYL1 gene product overproduced in S. cerevisiae TMB3260 (PGK1p-XYL1); purified by Red-Sepharose and gel filtration; no tag mentioned
Km (purified protein): 40 mM
